Patent US10792289B2 (Horizon Orphan LLC, priority 2009, dated 2020)

Tested on: P. aeruginosa
Experiment: Phase 2 study: P. aeruginosa density in sputum
Format: in vivo, Pseudomonas aeruginosa
Settings: MITT; for Reduction in P. aeruginosa density in sputum: median Day 1 to Day 28
Procedure: The following dosage regimens (as nebulizer loaded doses) were evaluated: 120 mg QD (daily); 240 mg QD (daily); and 240 mg BID (twice daily).
Patients were assessed on Day 1, 7, 14, and 28, and then up to 28 days after completion of study drug, namely, Days 42 and 56. The end of the study was defined as the last visit of the last patient.
Efficacy was evaluated by microbiologic assessment of sputum samples, time to need for anti-pseudomonal antimicrobials, the Cystic Fibrosis Questionaire-Revised (CFQ-R), and pulmonary function tests. […] Pair-wise comparisons between all the treatment arms were conducted as secondary analyses.

[1] = combined 240 mg QD and BID, Baseline to Day 7
[2] = combined 240 mg QD and BID, Baseline to Day 14
[3] = combined 240 mg QD and BID, Baseline to Day 28
[4] = combined 240 mg QD and BID, Day 1
[5] = combined 240 mg QD and BID, Day 7
[6] = combined 240 mg QD and BID, Day 14
[7] = combined 240 mg QD and BID, Day 28

C[C@H]1COc2c(N3CCN(C)CC3)c(F)cc3c(=O)c(C(=O)O)cn1c23 [Levofloxacin, levofloxacin]
Change in P. aeruginosa density, mean (120 mg QD, Baseline to Day 7): −0.70 log10 CTU/g sputum | Change in P. aeruginosa density, median (120 mg QD, Baseline to Day 7): −0.53 log10 CTU/g sputum | Change in P. aeruginosa density, mean (120 mg QD, Baseline to Day 14): −0.07 log10 CTU/g sputum | Change in P. aeruginosa density, median (120 mg QD, Baseline to Day 14): 0.00 log10 CTU/g sputum | Change in P. aeruginosa density, mean (120 mg QD, Baseline to Day 28): −0.27 log10 CTU/g sputum | Change in P. aeruginosa density, median (120 mg QD, Baseline to Day 28): −0.20 log10 CTU/g sputum | P. aeruginosa density, mean (120 mg QD, Day 1): 7.43 log10 CTU/g sputum | P. aeruginosa density, median (120 mg QD, Day 1): 8.16 log10 CTU/g sputum | P. aeruginosa density, mean (120 mg QD, Day 7): 6.68 log10 CTU/g sputum | P. aeruginosa density, median (120 mg QD, Day 7): 6.98 log10 CTU/g sputum | P. aeruginosa density, mean (120 mg QD, Day 14): 7.33 log10 CTU/g sputum | P. aeruginosa density, median (120 mg QD, Day 14): 8.00 log10 CTU/g sputum | P. aeruginosa density, mean (120 mg QD, Day 28): 7.26 log10 CTU/g sputum | P. aeruginosa density, median (120 mg QD, Day 28): 7.78 log10 CTU/g sputum | Reduction in P. aeruginosa density in sputum (120 mg QD): approximately 58% | Change in P. aeruginosa density, mean (240 mg BID, Baseline to Day 7): −0.97 log10 CTU/g sputum | Change in P. aeruginosa density, median (240 mg BID, Baseline to Day 7): −0.76 log10 CTU/g sputum | Change in P. aeruginosa density, mean (240 mg BID, Baseline to Day 14): −0.81 log10 CTU/g sputum | Change in P. aeruginosa density, median (240 mg BID, Baseline to Day 14): −0.79 log10 CTU/g sputum | Change in P. aeruginosa density, mean (240 mg BID, Baseline to Day 28): −0.66 log10 CTU/g sputum | Change in P. aeruginosa density, median (240 mg BID, Baseline to Day 28): −0.56 log10 CTU/g sputum | P. aeruginosa density, mean (240 mg BID, Day 1): 7.17 log10 CTU/g sputum | P. aeruginosa density, median (240 mg BID, Day 1): 7.90 log10 CTU/g sputum | P. aeruginosa density, mean (240 mg BID, Day 7): 6.16 log10 CTU/g sputum | P. aeruginosa density, median (240 mg BID, Day 7): 6.53 log10 CTU/g sputum | P. aeruginosa density, mean (240 mg BID, Day 14): 6.32 log10 CTU/g sputum | P. aeruginosa density, median (240 mg BID, Day 14): 6.70 log10 CTU/g sputum | P. aeruginosa density, mean (240 mg BID, Day 28): 6.58 log10 CTU/g sputum | P. aeruginosa density, median (240 mg BID, Day 28): 6.48 log10 CTU/g sputum | Reduction in P. aeruginosa density in sputum (240 mg BID): approximately 96% | Change in P. aeruginosa density, mean (240 mg QD, Baseline to Day 7): −0.31 log10 CTU/g sputum | Change in P. aeruginosa density, median (240 mg QD, Baseline to Day 7): −0.18 log10 CTU/g sputum | Change in P. aeruginosa density, mean (240 mg QD, Baseline to Day 14): −0.44 log10 CTU/g sputum | Change in P. aeruginosa density, median (240 mg QD, Baseline to Day 14): −0.10 log10 CTU/g sputum | Change in P. aeruginosa density, mean (240 mg QD, Baseline to Day 28): −0.25 log10 CTU/g sputum | Change in P. aeruginosa density, median (240 mg QD, Baseline to Day 28): −0.39 log10 CTU/g sputum | P. aeruginosa density, mean (240 mg QD, Day 1): 7.08 log10 CTU/g sputum | P. aeruginosa density, median (240 mg QD, Day 1): 7.97 log10 CTU/g sputum | P. aeruginosa density, mean (240 mg QD, Day 7): 6.79 log10 CTU/g sputum | P. aeruginosa density, median (240 mg QD, Day 7): 6.95 log10 CTU/g sputum | P. aeruginosa density, mean (240 mg QD, Day 14): 6.63 log10 CTU/g sputum | P. aeruginosa density, median (240 mg QD, Day 14): 6.46 log10 CTU/g sputum | P. aeruginosa density, mean (240 mg QD, Day 28): 6.82 log10 CTU/g sputum | P. aeruginosa density, median (240 mg QD, Day 28): 7.38 log10 CTU/g sputum | Reduction in P. aeruginosa density in sputum (240 mg QD): approximately 74% | Largest difference in P. aeruginosa density, placebo vs levofloxacin (Day 7): 1.44 log10 CFU/g sputum | Largest difference in P. aeruginosa density, placebo vs levofloxacin (Day 14): 1.39 log10 CFU/g sputum | Largest difference in P. aeruginosa density, placebo vs levofloxacin (Day 28): 1.78 log10 CFU/g sputum | Change in P. aeruginosa density, mean [1]: −0.65 log10 CTU/g sputum | Change in P. aeruginosa density, median [1]: −0.35 log10 CTU/g sputum | Change in P. aeruginosa density, mean [2]: −0.63 log10 CTU/g sputum | Change in P. aeruginosa density, median [2]: −0.40 log10 CTU/g sputum | Change in P. aeruginosa density, mean [3]: −0.46 log10 CTU/g sputum | Change in P. aeruginosa density, median [3]: −0.5 log10 CTU/g sputum | P. aeruginosa density, mean [4]: 7.12 log10 CTU/g sputum | P. aeruginosa density, median [4]: 7.91 log10 CTU/g sputum | P. aeruginosa density, mean [5]: 6.47 log10 CTU/g sputum | P. aeruginosa density, median [5]: 6.69 log10 CTU/g sputum | P. aeruginosa density, mean [6]: 6.48 log10 CTU/g sputum | P. aeruginosa density, median [6]: 6.61 log10 CTU/g sputum | P. aeruginosa density, mean [7]: 6.70 log10 CTU/g sputum | P. aeruginosa density, median [7]: 6.90 log10 CTU/g sputum
